The text below walks through data of PubChem BioAssay AID1963833 (Molecular Pharmacology Branch, DTP, NCI, 2024).

This assay concerns 883617-216-R-J1-PDC complex spheroid viability. The assay is described as follows: Anticancer human tumor 883617-216-R-J1-PDC patient-derived bladder carcinoma cell line growth inhibition [POLQ]. To be noted: for viability, T/C: stronger effect = lower value. As to the method:
Multicellular complex tumor spheroid response to Polymerase (POL) inhibitors (novobiocin, ART-558, RP6685) in combination with a variety of drugs and investigational agents in selected tumor cell lines
The POL inhibitors (novobiocin, ART-558, and RP6685) were evaluated both individually and in combination with standard of care and investigational anticancer small molecules within a complex spheroid model of solid tumors. . Complex spheroids include a stromal component modeled by human endothelial cells (HUVEC) and fibroblasts modeled by human mesenchymal stem cells (MSCs). The concentration ranges selected for each drug and investigational agent were based upon clinically achievable concentrations if the clinical Cmax of the agent was known.
Compounds. The drugs and investigational agents: novobiocin (NSC847541), ART-558 (NSC835418), RP-6685 (NSC848927), peposertib (NSC802822), ceralasertib (NSC780249), elimusertib (NSC800525), camonsertib (NSC841442), AZD-1390 (NSC803789), olaparib (NSC753686), talazoparib (NSC767125), rucaparib (NSC756644), sotorasib (NSC818433), MRTX-1133 (NSC836407), SN-38 (NSC673596), topotecan (NSC609699), epotoside (NSC141540), doxorubicin (NSC123127), gemcitabine (NSC613327), 5-fluorouracil (NSC19893), paclitaxel (NSC125973), vemurafenib (NSC761431), MSA-2 (NSC828583), SN-011 (NSC837082), adavosertib (NSC754352), prexasertib (NSC758257), carboplatin (NSC241240) and oxaliplatin (NSC266046), were obtained from the National Cancer Institute (NCI) Developmental Therapeutics Program Chemical Repository (21). The FDA-approved anticancer drug set is available from the Developmental Therapeutics Program at https://dtp.cancer.gov/organization/dscb/obtaining/. […] The stock solutions were prepared in dimethyl sulfoxide (DMSO, Sigma-Aldrich, St. Louis, MO, cat. D2650), except for the platinum compounds which were prepared in saline (Quality Biological, Gaithersburg, MD, cat. 114-055-101), at 800-fold the tested concentration and stored at -70 degrees C prior to their use. All drugs and investigational agents were tested over a range starting from a high concentration at or near the clinical Cmax and decreasing in half-log increments. If the clinical Cmax for an agent had not been determined, the highest concentration tested was 10 microM, except for SN-38, which was tested at a high concentration of 1 microM.
Cell Culture. All cells were maintained in an incubator at 37 degrees C and 5% CO2 with 95% humidity. The PDC lines were cultured according to standard operating procedures established by the NCI PDMR (https://pdmr.cancer.gov). Table 3 of the manuscript, lists the cell lines along with the number of the three cell types plated to form the mct-spheroids and media for tumor cell growth. After thawing, all PDC lines, except 997537-175-T-J1-PDC and 415267-285-R-J2-PDC, were cultured in Matrigel-coated flasks prepared with a working solution of 1X Ham's F-12 nutrient mix, without supplementation (Thermo Fisher Scientific, cat. 11765054), 100 U/mL penicillin-streptomycin (Thermo Fisher Scientific, cat. 15140122), and 2.5% Matrigel (Corning Inc., Corning, NY, cat. 354248) for the first three passages. The two PDC lines 997537-175-T-J1-PDC and 415267-285-R-J2-PDC were cultured on uncoated flasks. The 857933-349-R-J2-PDC line was cultured in 6C/Colon 1B media containing advanced DMEM/F-12 (Thermo Fisher Scientific, cat. 12634028), 10 mM HEPES (Thermo Fisher Scientific, cat. 15630080), 1X GlutaMAX supplement (Thermo Fisher Scientific, cat. 35050061), 0.1 mg/mL primocin (InvivoGen, San Diego, CA, cat. ant-pm-2), 10% defined fetal bovine serum, heat inactivated (HyClone Laboratories Inc., Logan, UT, cat. SH30070.03HI), 50% L-WRN conditioned media (ATCC, cat. CRL-3276), 1.25 mM N-Acetyl-L-cysteine (Sigma-Aldrich, cat. A9165), 10 mM nicotinamide (Sigma-Aldrich, cat. N0636), 1X B-27 supplement (Thermo Fisher Scientific, cat. 17504044), 1X N-2 supplement (Thermo Fisher Scientific, cat. […]

Several values for one entry are separate records, joined by “and”; a condition that tells them apart may be missing. Equal entries are not always repeated.
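Note: spheroids exposed to compounds for seven days before readout.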

Regarding `C=CC(=O)N1CCN(c2nc(=O)n(-c3c(C)ccnc3C(C)C)c3nc(-c4c(O)cccc4F)c(F)cc23)C(C)C1` (stereo not given), the viability, T/C is 74.3% and 68% and 64% (compound 0.0316 µM); 64.8% and 60.8% and 63.8% (compound 0.1 µM); 75.8% and 70.3% and 81.9% (compound 0.316 µM); 72.6% and 83.2% and 78.3% (compound 1 µM); 91.3% and 76.7% and 85% (compound 3.16 µM); 81.6% and 83.3% and 76.6% (compound 10 µM). For the same compound, the IC50 (curve of compound) is more than 10 µM.
On to `O=c1[nH]cc(F)c(=O)[nH]1`, for which the viability, T/C runs as follows: (compound 0.0316 µM) 108% and 102% and 103%; (compound 0.1 µM) 89.4% and 107% and 89.8%; (compound 0.316 µM) 109% and 106% and 81.9%; (compound 1 µM) 88.9% and 89.1% and 97.6%; (compound 3.16 µM) 79.5% and 85.3% and 88.3%; (compound 10 µM) 65.1% and 78.3% and 64.8%. The IC50 (curve of compound) is more than 10 µM.
`Cc1cccc(N(C)C(=O)C2C(O)CCN2c2nc(C)cc(C(F)(F)F)c2C#N)c1` (stereo not given): the viability, T/C by setting is: (compound 0.0316 µM) 102% [middle of 13 runs]; (compound 0.316 µM) 99.2% [middle of 13 runs]; (compound 1 µM) 100% [middle of 13 runs]; (compound 3.16 µM) 101% [middle of 13 runs]; (compound 10 µM) 105% [middle of 13 runs]. Also, the IC50 reads like this: (compound alone, run of 01/08/2024) more than 10 µM; (compound alone, run of 01/19/2024) more than 10 µM.
For the compound `COc1cc2cc(C(=O)CCC(=O)O)sc2cc1OC`, the viability, T/C by setting is: (compound 0.0316 µM) 95.8% and 105% and 103%; (compound 0.1 µM) 112% and 90% and 89.7%; (compound 0.316 µM) 91.7% and 102% and 96.7%; (compound 1 µM) 99.3% and 108% and 87.7%; (compound 3.16 µM) 105% and 96.4% and 83.4%; (compound 10 µM) 104% and 107% and 93.9%. The IC50 (curve of compound) is more than 10 µM.
As for `CC1COCCN1c1cc(C2(S(C)(=N)=O)CC2)nc(-c2ccnc3[nH]ccc23)n1` (stereo not given), the viability, T/C (compound 0.0316 µM) was 98.9% and 101% and 87.7%; the viability, T/C (compound 0.1 µM) is 89.9% and 94.3% and 103%; the viability, T/C (compound 0.316 µM) is 98.4% and 83.1% and 84%; the viability, T/C (compound 1 µM) is 71% (2×) and 73.5%; the viability, T/C (compound 3.16 µM) is 54.2% and 53.8% and 48.3%; the viability, T/C (compound 10 µM) was 30.1% and 34.3% and 34.5%. In addition, where the note is “curve of compound”, the 50% inhibitory concentration (IC50) is 3.5 µM and 4.11 µM and 2.82 µM.

What is called viability, T/C is the ratio of treated to control. By IC50 is commonly meant the concentration that inhibits the measured activity by half.
